Data published in patent US20230372498A1, “PLK1 SELECTIVE DEGRADATION INDUCING COMPOUND” (UPPTHERA, priority 2020, published 2023).

Target: T1, PLK1 (Homo sapiens, UniProt P53350)
T1 construct: endogenous in cells; host or cells: HeLa
Experiment: PLK1 protein degradation in HeLa cells, Western blotting (PLK1/GAPDH ratio)
Format: cell-based
Settings: 6 hours compound incubation; for Dmax: thymidine block and release, 10 points three-fold from 3 μM, PLK1 to GAPDH ratio, read-out: Dmax; for DC50: measured only if the grade of Dmax is A or B
In short: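 Thymidine-synchronised HeLa cells (2 mM, 24 h) released 4 h into complete medium, then treated 6 h with compound in 10-point 3-fold dilutions from 3 μM. RIPA lysates (15 μg protein) run on SDS-PAGE; PLK1 Western blot normalised to GAPDH.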

T1 sequence (P53350 whole entry): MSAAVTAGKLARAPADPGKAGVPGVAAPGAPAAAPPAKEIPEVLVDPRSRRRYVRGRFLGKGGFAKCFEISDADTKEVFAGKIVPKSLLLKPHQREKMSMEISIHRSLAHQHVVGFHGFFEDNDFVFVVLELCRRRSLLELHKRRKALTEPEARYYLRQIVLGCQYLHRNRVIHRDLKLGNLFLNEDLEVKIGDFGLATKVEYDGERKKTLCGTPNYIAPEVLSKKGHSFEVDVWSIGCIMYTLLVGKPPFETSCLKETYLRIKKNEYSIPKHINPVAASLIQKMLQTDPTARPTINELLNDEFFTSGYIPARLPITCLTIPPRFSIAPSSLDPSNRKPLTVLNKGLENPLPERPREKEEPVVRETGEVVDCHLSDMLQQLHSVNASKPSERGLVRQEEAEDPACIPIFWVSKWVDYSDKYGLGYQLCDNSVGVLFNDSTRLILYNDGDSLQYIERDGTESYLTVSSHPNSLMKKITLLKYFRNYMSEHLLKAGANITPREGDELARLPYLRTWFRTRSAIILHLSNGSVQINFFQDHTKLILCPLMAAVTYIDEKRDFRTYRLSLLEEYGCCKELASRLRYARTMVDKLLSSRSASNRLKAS

SMILES | Dmax [%] | DC50 [nM]
COc1cc(C(=O)NC2CCN(CCOCCOCCOCCOCCNc3cccc4c3C(=O)N(C3CCC(=O)N(C)C3=O)C4=O)CC2)c(F)cc1Nc1ncc2c(n1)N(C1CCCC1)CC(F)(F)C(=O)N2C (stereo not shown) [Compound 7, 4-((9-cyclopentyl-7,7-difluoro-5-methyl-6-oxo-6,7,8,9-tetrahydro-5H-pyrimido[4,5-b][1,4]diazepin-2-yl)amino)-2-fluoro-5-methoxy-N-(1-(14-((2-(1-methyl-2,6-dioxopiperidin-3-yl)-1,3-dioxoisoindolin-4-yl)amino)-3,6,9,12-tetraoxatetradecyl)piperidin-4-yl)benzamide] | < 60 | 
COc1cc(C(=O)N[C@H]2CCN(C(=O)CCCN3CC4(C3)CN(c3cccc5c3C(=O)N(C3CCC(=O)NC3=O)C5=O)C4)C2)c(F)cc1Nc1ncc2c(n1)N(C1CCCC1)CC(F)(F)C(=O)N2C (stereo partly drawn) [Example 175, 4-((9-cyclopentyl-7,7-difluoro-5-methyl-6-oxo-6,7,8,9-tetrahydro-5H-pyrimido[4,5-b][1,4]diazepin-2-yl)amino)-N-((3S)-1-(4-(6-(2-(2,6-dioxopiperidin-3-yl)-1,3-dioxoisoindolin-4-yl)-2,6-diazaspiro[3.3]heptan-2-yl)butanoyl)pyrrolidin-3-yl)-2-fluoro-5-methoxybenzamide] | ≥ 80 | 
CN1C(=O)C(F)(F)CN(C2CCCC2)c2nc(Nc3ccc(C(=O)NC4CCN(C(=O)CCN5CCN(c6cccc7c6C(=O)N(C6CCC(=O)NC6=O)C7=O)CC5)CC4)cc3)ncc21 (stereo not shown) [Compound 129, 4-((9-cyclopentyl-7,7-difluoro-5-methyl-6-oxo-6,7,8,9-tetrahydro-5H-pyrimido[4,5-b][1,4]diazepin-2-yl)amino)-N-(1-(3-(4-(2-(2,6-dioxopiperidin-3-yl)-1,3-dioxoisoindolin-4-yl)piperazin-1-yl)propanoyl)piperidin-4-yl)benzamide] | ≥ 80 | ≤ 50
COc1cc(C(=O)NC2CCN(CCOCCNC(=O)COc3cccc4c3C(=O)N(C3CCC(=O)NC3=O)C4=O)C2)c(F)cc1Nc1ncc2c(n1)N(C1CCCC1)CC(F)(F)C(=O)N2C (stereo not shown) [Compound 127, 4-((9-cyclopentyl-7,7-difluoro-5-methyl-6-oxo-6,7,8,9-tetrahydro-5H-pyrimido[4,5-b][1,4]diazepin-2-yl)amino)-N-(1-(2-(2-(2-((2-(2,6-dioxopiperidin-3-yl)-1,3-dioxoisoindolin-4-yl)oxy)acetamido)ethoxy)ethyl)pyrrolidin-3-yl)-2-fluoro-5-methoxybenzamide] | 60 to 80 | ≤ 500
COc1cc(C(=O)NC2CCN(CCOCCOCCOCCOCC#Cc3cccc4c3C(=O)N(C3CCC(=O)NC3=O)C4=O)CC2)c(F)cc1Nc1ncc2c(n1)N(C1CCCC1)CC(F)(F)C(=O)N2C (stereo not shown) [Compound 52, 4-((9-cyclopentyl-7,7-difluoro-5-methyl-6-oxo-6,7,8,9-tetrahydro-5H-pyrimido[4,5-b][1,4]diazepin-2-yl)amino)-N-(1-(15-(2-(2,6-dioxopiperidin-3-yl)-1,3-dioxoisoindolin-4-yl)-3,6,9,12-tetraoxapentadec-14-yn-1-yl)piperidin-4-yl)-2-fluoro-5-methoxybenzamide] | ≥ 80 | ≤ 50
COc1cc(C(=O)NC2CCN(CCOCCNC(=O)CNc3cccc4c3C(=O)N(C3CCC(=O)NC3=O)C4=O)CC2)c(F)cc1Nc1ncc2c(n1)N(C1CCCC1)CC(F)(F)C(=O)N2C (stereo not shown) [Compound 29, 4-((9-cyclopentyl-7,7-difluoro-5-methyl-6-oxo-6,7,8,9-tetrahydro-5H-pyrimido[4,5-b][1,4]diazepin-2-yl)amino)-N-(1-(2-(2-(2-((2-(2,6-dioxopiperidin-3-yl)-1,3-dioxoisoindolin-4-yl)amino)acetamido)ethoxy)ethyl)piperidin-4-yl)-2-fluoro-5-methoxybenzamide] | ≥ 80 | ≤ 50
COc1cc(C(=O)N[C@H]2CCN(C(=O)CN3CCN(c4cccc5c4C(=O)N(C4CCC(=O)NC4=O)C5=O)CC3)C2)c(F)cc1Nc1ncc2c(n1)N(C1CCCC1)CC(F)(F)C(=O)N2C (stereo partly shown) [Compound 130] | ≥ 80 | ≤ 50
COc1cc(C(=O)NC2CCN(Cc3ccc(OCCNc4cccc5c4C(=O)N(C4CCC(=O)NC4=O)C5=O)cc3)CC2)c(F)cc1Nc1ncc2c(n1)N(C1CCCC1)CC(F)(F)C(=O)N2C (stereo not shown) [Compound 40, 4-((9-cyclopentyl-7,7-difluoro-5-methyl-6-oxo-6,7,8,9-tetrahydro-5H-pyrimido[4,5-b][1,4]diazepin-2-yl)amino)-N-(1-(4-(2-((2-(2,6-dioxopiperidin-3-yl)-1,3-dioxoisoindolin-4-yl)amino)ethoxy)benzyl)piperidin-4-yl)-2-fluoro-5-methoxybenzamide] | 60 to 80 | ≤ 500
COc1cc(C(=O)NCCCCCNC(=O)COc2cccc3c2C(=O)N(C2CCC(=O)NC2=O)C3=O)c(F)cc1Nc1ncc2c(n1)N(C1CCCC1)CC(F)(F)C(=O)N2C (stereo not shown) [Compound 162, 4-((9-cyclopentyl-7,7-difluoro-5-methyl-6-oxo-6,7,8,9-tetrahydro-5H-pyrimido[4,5-b][1,4]diazepin-2-yl)amino)-N-(5-(2-((2-(2,6-dioxopiperidin-3-yl)-1,3-dioxoisoindolin-4-yl)oxy)acetamido)pentyl)-2-fluoro-5-methoxybenzamide] | ≥ 80 | ≤ 50
COc1cc(C(=O)N[C@H]2CCN(C(=O)CCC(=O)N3CC4(C3)CN(c3cccc5c3C(=O)N(C3CCC(=O)NC3=O)C5=O)C4)C2)c(F)cc1Nc1ncc2c(n1)N(C1CCCC1)CC(F)(F)C(=O)N2C (stereo partly drawn) [Compound 148, 4-((9-cyclopentyl-7,7-difluoro-5-methyl-6-oxo-6,7,8,9-tetrahydro-5H-pyrimido[4,5-b][1,4]diazepin-2-yl)amino)-N-((3S)-1-(4-(6-(2-(2,6-dioxopiperidin-3-yl)-1,3-dioxoisoindolin-4-yl)-2,6-diazaspiro[3.3]heptan-2-yl)-4-oxobutanoyl)pyrrolidin-3-yl)-2-fluoro-5-methoxybenzamide] | ≥ 80 | ≤ 50
COc1cc(C(=O)NC2CCN(C(=O)COCCOCCNc3cccc4c3C(=O)N(C3CCC(=O)NC3=O)C4=O)CC2)c(F)cc1Nc1ncc2c(n1)N(C1CCCC1)CC(F)(F)C(=O)N2C (stereo not shown) [Compound 33, 4-((9-cyclopentyl-7,7-difluoro-5-methyl-6-oxo-6,7,8,9-tetrahydro-5H-pyrimido[4,5-b][1,4]diazepin-2-yl)amino)-N-(1-(2-(2-(2-((2-(2,6-dioxopiperidin-3-yl)-1,3-dioxoisoindolin-4-yl)amino)ethoxy)ethoxy)acetyl)piperidin-4-yl)-2-fluoro-5-methoxybenzamide] | ≥ 80 | ≤ 50
COc1cc(C(=O)NC2CCN(C(=O)CCCCCNc3cccc4c3C(=O)N(C3CCC(=O)NC3=O)C4=O)C2)c(F)cc1Nc1ncc2c(n1)N(C1CCCC1)CC(F)(F)C(=O)N2C (stereo not shown) [Compound 118, 4-((9-cyclopentyl-7,7-difluoro-5-methyl-6-oxo-6,7,8,9-tetrahydro-5H-pyrimido[4,5-b][1,4]diazepin-2-yl)amino)-N-(1-(6-((2-(2,6-dioxopiperidin-3-yl)-1,3-dioxoisoindolin-4-yl)amino)hexanoyl)pyrrolidin-3-yl)-2-fluoro-5-methoxybenzamide] | ≥ 80 | ≤ 50
COc1cc(C(=O)NC2CCN(CCOCCOCCOCCNc3cccc4c3C(=O)N(C3CCC(=O)NC3=O)C4=O)CC2)c(F)cc1Nc1ncc2c(n1)N(C1CCCC1)CC(F)(F)C(=O)N2C (stereo not shown) [Compound 3, 4-((9-cyclopentyl-7,7-difluoro-5-methyl-6-oxo-6,7,8,9-tetrahydro-5H-pyrimido[4,5-b][1,4]diazepin-2-yl)amino)-N-(1-(2-(2-(2-(2-((2-(2,6-dioxopiperidin-3-yl)-1,3-dioxoisoindolin-4-yl)amino)ethoxy)ethoxy)ethoxy)ethyl)piperidin-4-yl)-2-fluoro-5-methoxybenzamide] | ≥ 80 | ≤ 50
COc1cc(C(=O)NC2CCN(C(=O)COCCNc3cccc4c3C(=O)N(C3CCC(=O)NC3=O)C4=O)CC2)c(F)cc1Nc1ncc2c(n1)N(C1CCCC1)CC(F)(F)C(=O)N2C (stereo not shown) [Compound 31, 4-((9-cyclopentyl-7,7-difluoro-5-methyl-6-oxo-6,7,8,9-tetrahydro-5H-pyrimido[4,5-b][1,4]diazepin-2-yl)amino)-N-(1-(2-(2-((2-(2,6-dioxopiperidin-3-yl)-1,3-dioxoisoindolin-4-yl)amino)ethoxy)acetyl)piperidin-4-yl)-2-fluoro-5-methoxybenzamide] | < 60 | 
COc1cc(C(=O)NC2CCN(CCCCNc3cccc4c3C(=O)N(C3CCC(=O)NC3=O)C4=O)CC2)c(F)cc1Nc1ncc2c(n1)N(C1CCCC1)CC(F)(F)C(=O)N2C (stereo not shown) [Compound 8, 4-((9-cyclopentyl-7,7-difluoro-5-methyl-6-oxo-6,7,8,9-tetrahydro-5H-pyrimido[4,5-b][1,4]diazepin-2-yl)amino)-N-(1-(4-((2-(2,6-dioxopiperidin-3-yl)-1,3-dioxoisoindolin-4-yl)amino)butyl)piperidin-4-yl)-2-fluoro-5-methoxybenzamide] | < 60 | 
COc1cc(C(=O)NC2CCN(Cc3cncc(CNC(=O)COc4cccc5c4C(=O)N(C4CCC(=O)NC4=O)C5=O)c3)CC2)c(F)cc1Nc1ncc2c(n1)N(C1CCCC1)CC(F)(F)C(=O)N2C (stereo not shown) [Compound 62, 4-((9-cyclopentyl-7,7-difluoro-5-methyl-6-oxo-6,7,8,9-tetrahydro-5H-pyrimido[4,5-b][1,4]diazepin-2-yl)amino)-N-(1-((5-((2-((2-(2,6-dioxopiperidin-3-yl)-1,3-dioxoisoindolin-4-yl)oxy)acetamido)methyl)pyridin-3-yl)methyl)piperidin-4-yl)-2-fluoro-5-methoxybenzamide] | 60 to 80 | ≤ 50
